One series concerns the target VEGFR II (KDR) (Homo sapiens, UniProt P35968). The series is described as follows: Inhibition of the KDR kinase activity (33P-ATP, poly-(Glu4Tyr) substrate, phosphocellulose filter). Format: biochemical. The settings on record: 10 minutes at room temperature; phosphate incorporation. Here is the method:
• Stock solution A: 3 mmol of ATP in water, pH 7.0 (−70° C.) • Stock solution B: g-33P-ATP 1 mCi/100 μl • Stock solution C: poly-(Glu4 Tyr) 10 mg/ml in water Solution for Dilutions • Substrate solvent: 10 mmol of DTT, 10 mmol of manganese chloride, 100 mmol of magnesium chloride • Enzyme solution: 120 mmol of tris/HCl, pH 7.5, […] of sodium vanadium oxide
Inhibition of the KDR- and FLT-1 Kinase Activity in the Presence of the Compounds According to the Invention
In a microtiter plate (without protein binding) that tapers to a point, 10 μl of substrate mix (10 μl of volume of ATP stock solution A+25 μCi of g-33P-ATP (about 2.5 μl of stock solution B)+30 μl of poly-(Glu4Tyr) stock solution C+1.21 ml of substrate solvent), 10 μl of inhibitor solution (substances corresponding to the dilutions, 3% DMSO in substrate solvent as a control) and 10 μl of enzyme solution (11.25 μg of enzyme stock solution (KDR or FLT-1 kinase) are added at 4° C. in 1.25 ml of enzyme solution (dilute). It is thoroughly mixed and incubated for 10 minutes at room temperature. Then, 10 μl of stop solution ([…] of EDTA, pH 7.0) is added, mixed, and 10 μl of the solution is transferred to a P 81 phosphocellulose filter. Then, it is washed several times in 0.1 M phosphoric acid. The filter paper is dried, coated with Meltilex and measured in a microbeta counter.
The IC50 values are determined from the inhibitor concentration, which is necessary to inhibit the phosphate incorporation to 50% of the uninhibited incorporation after removal of the blank reading (EDTA-stopped reaction).

For a further series, the target named is T1, Cytochrome P450 2C9 (Homo sapiens, UniProt P11712).
T1 construct: host or cells: baculovirus/insect cells
Nature of the series: Cytochrome P450 inhibition (Crespi et al.). Format: in vitro ADME. The following applies: baculovirus/insect cell-expressed human isoenzyme 2C9; read-out: Inhibition of the Cytochrome P450 Isoenzymes IC50, 2C9. As to the method:
(§1) The Cytochrome P450 inhibition was performed according to the publication of Crespi et al. (Anal. Biochem., 248, 188-190 (1997)) with use of baculovirus/insect cell-expressed, human Cytochrome P 450 isoenzymes (1A2, 2C9, 2C19, 2D6, 3A4).

For the next series, the target named is T2, Cytochrome P450 1A2 (Homo sapiens, UniProt P05177).
T2 construct: host or cells: baculovirus/insect cells
T2 sequence (P05177 1-516): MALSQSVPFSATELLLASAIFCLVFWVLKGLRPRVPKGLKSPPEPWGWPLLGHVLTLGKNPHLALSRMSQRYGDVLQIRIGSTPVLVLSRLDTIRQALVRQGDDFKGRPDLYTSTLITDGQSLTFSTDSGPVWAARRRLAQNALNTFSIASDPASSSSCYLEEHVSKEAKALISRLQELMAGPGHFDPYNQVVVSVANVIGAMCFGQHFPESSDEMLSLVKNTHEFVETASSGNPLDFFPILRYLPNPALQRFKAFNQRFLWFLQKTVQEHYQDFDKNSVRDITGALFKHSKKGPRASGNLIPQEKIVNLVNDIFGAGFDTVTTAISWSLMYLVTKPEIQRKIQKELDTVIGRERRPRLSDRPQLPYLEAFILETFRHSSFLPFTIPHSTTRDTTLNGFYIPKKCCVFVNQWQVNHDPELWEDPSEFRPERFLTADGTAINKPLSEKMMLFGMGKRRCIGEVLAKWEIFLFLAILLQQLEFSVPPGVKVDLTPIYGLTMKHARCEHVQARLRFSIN
Nature of the series: Cytochrome P450 inhibition (Crespi et al.). The series is classed as in vitro ADME. The following applies: baculovirus/insect cell-expressed human isoenzyme 1A2; read-out: Inhibition of the Cytochrome P450 Isoenzymes IC50, 1A2. Here is the method: as §1

The target of another series is T3, Cytochrome P450 2C19 (Homo sapiens, UniProt P33261).
T3 construct: host or cells: baculovirus/insect cells
Nature of the series: Cytochrome P450 inhibition (Crespi et al.). The series is classed as in vitro ADME. The following applies: baculovirus/insect cell-expressed human isoenzyme 2C19; read-out: Inhibition of the Cytochrome P450 Isoenzymes IC50, 2C19. Here is the method:
as §1

The target of a further series is T4, Cytochrome P450 2D6 (Homo sapiens, UniProt P10635).
T4 construct: host or cells: baculovirus/insect cells
The series is described as follows: Cytochrome P450 inhibition (Crespi et al.). Format: in vitro ADME. The settings on record: baculovirus/insect cell-expressed human isoenzyme 2D6; read-out: Inhibition of the Cytochrome P450 Isoenzymes IC50, 2D6. Here is the method:
as §1

The target in a further series is T5, Cytochrome P450 3A4 (Homo sapiens, UniProt P08684).
T5 construct: host or cells: baculovirus/insect cells
The series is described as follows: Cytochrome P450 inhibition (Crespi et al.). The series is classed as in vitro ADME. The following applies: baculovirus/insect cell-expressed human isoenzyme 3A4; read-out: Inhibition of the Cytochrome P450 Isoenzymes IC50, 3A4. As to the method:
as §1

Each structure is given as a SMILES string.

Usually IC50 stands for the midpoint of a concentration-inhibition curve. What is called melting point is the temperature of the solid-liquid transition.

VEGFR II (KDR), sequence (P35968 20-1356, species assumed): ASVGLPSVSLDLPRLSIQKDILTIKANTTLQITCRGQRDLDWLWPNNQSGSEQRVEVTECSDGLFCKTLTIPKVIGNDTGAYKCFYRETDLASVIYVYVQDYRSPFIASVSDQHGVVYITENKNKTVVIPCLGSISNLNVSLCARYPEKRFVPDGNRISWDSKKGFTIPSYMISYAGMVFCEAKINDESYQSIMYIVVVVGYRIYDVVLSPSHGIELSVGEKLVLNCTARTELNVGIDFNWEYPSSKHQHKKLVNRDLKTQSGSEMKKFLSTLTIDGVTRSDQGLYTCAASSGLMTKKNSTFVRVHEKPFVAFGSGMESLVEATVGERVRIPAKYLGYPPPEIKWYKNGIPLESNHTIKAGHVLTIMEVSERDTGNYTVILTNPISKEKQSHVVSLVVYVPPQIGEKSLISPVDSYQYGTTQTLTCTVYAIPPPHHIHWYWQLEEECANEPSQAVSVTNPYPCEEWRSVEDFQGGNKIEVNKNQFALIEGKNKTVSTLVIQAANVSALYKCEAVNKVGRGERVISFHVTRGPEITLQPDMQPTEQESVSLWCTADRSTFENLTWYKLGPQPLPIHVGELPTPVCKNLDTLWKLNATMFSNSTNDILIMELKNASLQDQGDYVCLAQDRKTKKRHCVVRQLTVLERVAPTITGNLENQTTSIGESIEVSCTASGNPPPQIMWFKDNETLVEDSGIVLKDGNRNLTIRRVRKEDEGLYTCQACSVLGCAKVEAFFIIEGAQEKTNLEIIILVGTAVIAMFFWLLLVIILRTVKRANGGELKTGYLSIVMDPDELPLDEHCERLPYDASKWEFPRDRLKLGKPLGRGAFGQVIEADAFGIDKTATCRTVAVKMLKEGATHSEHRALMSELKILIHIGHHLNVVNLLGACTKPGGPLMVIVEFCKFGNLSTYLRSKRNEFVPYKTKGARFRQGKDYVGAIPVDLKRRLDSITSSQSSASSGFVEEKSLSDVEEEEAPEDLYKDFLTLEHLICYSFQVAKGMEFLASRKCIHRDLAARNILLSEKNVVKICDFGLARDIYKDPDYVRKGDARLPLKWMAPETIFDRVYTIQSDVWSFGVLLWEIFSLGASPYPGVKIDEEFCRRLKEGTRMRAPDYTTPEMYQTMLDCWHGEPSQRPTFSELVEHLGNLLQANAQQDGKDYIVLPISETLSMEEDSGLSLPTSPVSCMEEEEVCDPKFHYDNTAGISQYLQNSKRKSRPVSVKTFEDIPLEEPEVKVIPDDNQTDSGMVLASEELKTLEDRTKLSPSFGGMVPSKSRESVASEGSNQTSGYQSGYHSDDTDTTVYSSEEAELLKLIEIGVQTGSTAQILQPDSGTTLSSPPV
T1 sequence (P11712 whole entry): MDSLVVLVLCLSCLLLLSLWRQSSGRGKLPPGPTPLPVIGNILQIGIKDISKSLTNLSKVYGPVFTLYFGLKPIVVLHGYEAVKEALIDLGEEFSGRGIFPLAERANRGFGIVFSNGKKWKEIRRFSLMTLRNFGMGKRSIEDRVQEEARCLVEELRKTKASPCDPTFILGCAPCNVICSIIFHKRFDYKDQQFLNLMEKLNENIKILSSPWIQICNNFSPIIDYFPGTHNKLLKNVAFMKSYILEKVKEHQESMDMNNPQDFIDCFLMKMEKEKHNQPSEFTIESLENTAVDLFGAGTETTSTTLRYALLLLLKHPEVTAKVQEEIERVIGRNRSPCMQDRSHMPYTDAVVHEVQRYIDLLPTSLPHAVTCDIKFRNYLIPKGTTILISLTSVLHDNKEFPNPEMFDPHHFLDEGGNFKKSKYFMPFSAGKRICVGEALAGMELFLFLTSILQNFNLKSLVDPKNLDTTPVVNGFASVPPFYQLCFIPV
T5 sequence (P08684 whole entry): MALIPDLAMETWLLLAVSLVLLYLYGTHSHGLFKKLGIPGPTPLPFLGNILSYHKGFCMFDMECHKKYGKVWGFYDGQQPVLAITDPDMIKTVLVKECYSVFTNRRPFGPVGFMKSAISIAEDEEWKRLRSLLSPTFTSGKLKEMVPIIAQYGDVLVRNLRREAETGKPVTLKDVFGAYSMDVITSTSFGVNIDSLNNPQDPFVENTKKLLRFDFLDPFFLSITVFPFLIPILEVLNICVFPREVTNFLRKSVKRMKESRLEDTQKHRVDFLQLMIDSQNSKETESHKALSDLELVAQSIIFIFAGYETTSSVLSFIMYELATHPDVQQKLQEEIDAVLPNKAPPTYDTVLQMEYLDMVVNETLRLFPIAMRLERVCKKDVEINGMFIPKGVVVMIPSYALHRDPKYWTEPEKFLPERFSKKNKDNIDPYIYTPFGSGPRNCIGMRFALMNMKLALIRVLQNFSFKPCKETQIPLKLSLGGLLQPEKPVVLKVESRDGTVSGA
T4 sequence (P10635 whole entry): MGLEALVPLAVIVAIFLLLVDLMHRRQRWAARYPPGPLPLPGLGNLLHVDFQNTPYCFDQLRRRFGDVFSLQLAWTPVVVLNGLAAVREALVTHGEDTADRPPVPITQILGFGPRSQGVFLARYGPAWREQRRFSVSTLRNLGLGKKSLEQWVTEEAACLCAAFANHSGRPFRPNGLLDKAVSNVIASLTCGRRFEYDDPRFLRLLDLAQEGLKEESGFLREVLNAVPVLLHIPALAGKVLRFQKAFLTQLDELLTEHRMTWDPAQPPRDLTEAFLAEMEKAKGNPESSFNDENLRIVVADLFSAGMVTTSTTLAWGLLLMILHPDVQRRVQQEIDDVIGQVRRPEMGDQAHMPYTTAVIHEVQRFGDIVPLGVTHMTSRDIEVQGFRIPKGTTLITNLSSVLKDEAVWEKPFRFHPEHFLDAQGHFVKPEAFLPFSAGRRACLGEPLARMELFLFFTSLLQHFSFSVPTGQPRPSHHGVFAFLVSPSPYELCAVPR
T3 sequence (P33261 whole entry): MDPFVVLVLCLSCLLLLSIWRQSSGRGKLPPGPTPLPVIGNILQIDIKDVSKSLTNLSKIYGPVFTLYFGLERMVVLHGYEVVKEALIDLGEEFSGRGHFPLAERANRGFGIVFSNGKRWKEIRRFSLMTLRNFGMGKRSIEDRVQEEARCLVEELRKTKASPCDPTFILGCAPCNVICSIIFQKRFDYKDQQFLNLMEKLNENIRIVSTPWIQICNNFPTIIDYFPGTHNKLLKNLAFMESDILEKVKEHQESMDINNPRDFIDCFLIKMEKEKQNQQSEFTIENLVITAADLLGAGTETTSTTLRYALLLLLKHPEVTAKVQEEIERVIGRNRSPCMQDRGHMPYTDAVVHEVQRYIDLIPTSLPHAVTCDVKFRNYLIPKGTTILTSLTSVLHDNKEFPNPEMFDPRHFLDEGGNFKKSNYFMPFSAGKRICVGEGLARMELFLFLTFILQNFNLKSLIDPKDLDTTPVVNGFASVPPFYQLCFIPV

`N#Cc1cc(CNc2ccccc2C(=O)Nc2cc3ccccc3cn2)ccn1` [Example 1]: the IC50 is 10 nM against VEGFR II (KDR); 1200 nM on Cytochrome P450 2C9; over 30 µM on Cytochrome P450 1A2; 1800 nM on Cytochrome P450 2C19; over 30 µM at Cytochrome P450 2D6; over 30 µM on Cytochrome P450 3A4.
Regarding `N#Cc1ccc(CNc2ccccc2C(=O)Nc2cc3ccccc3cn2)cn1` [Example 2], the melting point was 173.8 °C. On VEGFR II (KDR), this compound yielded an IC50 of 50 nM.
Regarding `N#Cc1ncccc1CNc1ccccc1C(=O)Nc1cc2ccccc2cn1` [Example 3], the melting point was 233.4 °C (dec.). Besides, inhibition against VEGFR II (KDR) was half-maximal at 50 nM (IC50).
With `N#Cc1ccc(CNc2ccccc2C(=O)Nc2ccc3c(c2)CC(=O)N3)cn1` [Example 4], inhibition at VEGFR II (KDR) was half-maximal at 300 nM (IC50).
The same measure, in the same setting: under `N#CCn1ncc2ccc(NC(=O)c3ccccc3NCc3ccnc(C#N)c3)cc21` [Example 5] stands 300 nM.
With `COc1ccc2cc(NC(=O)c3ccccc3NCc3ccc(C#N)nc3)c(=O)oc2c1` [Example 6], the melting point turned out to be 173.4 °C. At VEGFR II (KDR), this compound came in with an IC50 of 300 nM.
For the compound `Cn1ncc2ccc(NC(=O)c3ccccc3NCc3ccnc(C#N)c3)cc21` [Example 10], the melting point is 155 to 158 °C. In addition, the IC50 against VEGFR II (KDR) was 200 nM.
On to `COc1ccc2cc(NC(=O)c3ccccc3NCc3ccnc(C#N)c3)c(=O)oc2c1` [Example 11], for which the melting point was 165 to 167 °C. The same compound came in with a half-inhibitory concentration (IC50) at VEGFR II (KDR) of 200 nM.
With `COc1ccc2cc(C)c(NC(=O)c3ccccc3NCc3ccnc(C#N)c3)nc2c1` [Example 12], the melting point fell in the range of 153 to 155 °C. This compound also gave a concentration for half-maximal inhibition (IC50) at VEGFR II (KDR) of 700 nM.
As for `N#Cc1cc(CNc2ccccc2C(=O)Nc2ccc3c(c2)NC(=O)C3)ccn1` [Example 13], at VEGFR II (KDR), the IC50 stood at 200 nM.
The same measure, in the same setting: under `Cn1cc2ccc(NC(=O)c3ccccc3NCc3ccnc(C#N)c3)cc2n1` [Example 15] stands 200 nM; under `N#Cc1cc(CNc2ccccc2C(=O)Nc2ccc3cn[nH]c3c2)ccn1` [Example 16], 100 nM.
